Assay results reported in PubChem BioAssay (NCI).
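Cultured in 96-well plates, cells were exposed to test compound for 48 hours across five concentrations. Abbreviation: GI50, concentration required for 50% inhibition of growth. Definition used: TGI = concentration required for complete inhibition of growth.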

Columns and labels:
Experiment in all cases: DTP human tumour cell line panel, 48 h
[1] = system: OVCAR-5 ovarian
[2] = system: NCI-H23 lung
[3] = system: NCI-H522 lung
[4] = system: SK-MEL-5 melanoma
[5] = system: CAKI-1 renal
[6] = system: SNB-19 CNS
[7] = system: KM12 colon
[8] = system: BT-549 breast
[9] = system: ACHN renal
[10] = system: NCI-H226 lung
[11] = system: K-562 leukemia
[12] = system: 786-0 renal
[13] = system: SK-MEL-28 melanoma
[14] = system: SK-OV-3 ovarian
[15] = system: SW-620 colon
[16] = system: SF-539 CNS
[17] = system: RXF 393 renal
[18] = system: CCRF-CEM leukemia
[19] = system: DU-145 prostate
[20] = system: NCI-H460 lung
[21] = system: MALME-3M melanoma
[22] = system: UACC-257 melanoma
[23] = system: HT29 colon
[24] = system: OVCAR-3 ovarian
[25] = system: HS 578T breast
[26] = system: HCC-2998 colon
[27] = system: SF-295 CNS
[28] = system: MOLT-4 leukemia
[29] = system: OVCAR-4 ovarian
[30] = system: PC-3 prostate
[31] = system: COLO 205 colon
[32] = system: UACC-62 melanoma
[33] = system: OVCAR-8 ovarian
[34] = system: HOP-92 NSCLC
[35] = system: HCT-15 colon
[36] = system: MCF7 breast
[37] = system: MDA-MB-435
[38] = system: TK-10 renal
[39] = system: LOX IMVI melanoma
[40] = system: U251 CNS
[41] = system: NCI/ADR-RES ovarian
[42] = system: EKVX NSCLC
[43] = system: M14 melanoma
[44] = system: MDA-MB-468 breast
[45] = system: A498 renal
[46] = system: HCT-116 colon
[47] = system: HL-60(TB) leukemia
[48] = system: T-47D breast
[49] = system: IGROV1 ovarian
[50] = system: SNB-75 CNS
[51] = system: HOP-62 NSCLC
[52] = system: SN12C renal
[53] = system: SK-MEL-2 melanoma
[54] = system: RPMI-8226 leukemia
[55] = system: UO-31 renal
[56] = system: A549 NSCLC
[57] = system: MDA-MB-231 breast
[58] = system: SF-268 CNS

Cn1cc(NC(=O)c2cc(NC(=O)c3ccc(C#Cc4ccccc4)cc3)cn2C)cc1C(=O)NCCCN1CCOCC1
GI50 [1]: > 32.5 µM
TGI [1]: > 32.5 µM
GI50 [2]: 14.3 µM
TGI [2]: > 32.5 µM
GI50 [3]: 8.72 µM
TGI [3]: > 32.5 µM
GI50 [4]: 11.3 µM
TGI [4]: > 32.5 µM
GI50 [5]: 17.5 µM
TGI [5]: > 32.5 µM
GI50 [6]: > 32.5 µM
TGI [6]: > 32.5 µM
GI50 [7]: 11.2 µM
TGI [7]: > 32.5 µM
GI50 [8]: 5.22 µM
TGI [8]: 20 µM
GI50 [9]: 16.4 µM
TGI [9]: > 32.5 µM
GI50 [10]: 16.6 µM
TGI [10]: > 32.5 µM
GI50 [11]: 8.4 µM
TGI [11]: > 32.5 µM
GI50 [12]: 9.11 µM
TGI [12]: 29.5 µM
GI50 [13]: > 32.5 µM
TGI [13]: > 32.5 µM
GI50 [14]: > 32.5 µM
TGI [14]: > 32.5 µM
GI50 [15]: 9.25 µM
TGI [15]: > 32.5 µM
GI50 [16]: 6.37 µM
TGI [16]: 14.5 µM
GI50 [17]: 2.55 µM
TGI [17]: 21.1 µM
GI50 [18]: 6.76 µM
TGI [18]: > 32.5 µM
GI50 [19]: 11.6 µM
TGI [19]: > 32.5 µM
GI50 [20]: 10.1 µM
TGI [20]: > 32.5 µM
GI50 [21]: 13.3 µM
TGI [21]: > 32.5 µM
GI50 [22]: 18.9 µM
TGI [22]: > 32.5 µM
GI50 [23]: 6.62 µM
TGI [23]: 22.9 µM
GI50 [24]: 6.21 µM
TGI [24]: > 32.5 µM
GI50 [25]: 7.04 µM
TGI [25]: > 32.5 µM
GI50 [26]: 11.9 µM
TGI [26]: > 32.5 µM
GI50 [27]: 12.6 µM
TGI [27]: > 32.5 µM
GI50 [28]: 8.41 µM
TGI [28]: > 32.5 µM
GI50 [29]: 25.6 µM
TGI [29]: > 32.5 µM
GI50 [30]: 12.2 µM
TGI [30]: > 32.5 µM
GI50 [31]: > 32.5 µM
TGI [31]: > 32.5 µM
GI50 [32]: 11 µM
TGI [32]: > 32.5 µM
GI50 [33]: 6.14 µM
TGI [33]: 20.2 µM
GI50 [34]: 5.05 µM
TGI [34]: 20.4 µM
GI50 [35]: 5.47 µM
TGI [35]: 13.7 µM
GI50 [36]: 6.15 µM
TGI [36]: 30.8 µM
GI50 [37]: 9.91 µM
TGI [37]: > 32.5 µM
GI50 [38]: > 32.5 µM
TGI [38]: > 32.5 µM
GI50 [39]: 4.94 µM
TGI [39]: 9.38 µM
GI50 [40]: 9.01 µM
TGI [40]: > 32.5 µM
GI50 [41]: 7.66 µM
TGI [41]: 23.8 µM
GI50 [42]: 10.6 µM
TGI [42]: > 32.5 µM
GI50 [43]: 12.6 µM
TGI [43]: > 32.5 µM
GI50 [44]: 7.75 µM
TGI [44]: 25.5 µM
GI50 [45]: > 32.5 µM
TGI [45]: > 32.5 µM
GI50 [46]: 8.36 µM
TGI [46]: > 32.5 µM
GI50 [47]: 5.19 µM
TGI [47]: 32.3 µM
GI50 [48]: 5.88 µM
TGI [48]: > 32.5 µM
GI50 [49]: > 32.5 µM
TGI [49]: > 32.5 µM
GI50 [50]: 6.71 µM
TGI [50]: > 32.5 µM
GI50 [51]: 18 µM
TGI [51]: > 32.5 µM
GI50 [52]: 7.08 µM
TGI [52]: > 32.5 µM
GI50 [53]: 6.15 µM
TGI [53]: 14.4 µM
GI50 [54]: 5.61 µM
TGI [54]: 32.3 µM
GI50 [55]: 14 µM
TGI [55]: > 32.5 µM
GI50 [56]: 20 µM
TGI [56]: > 32.5 µM
GI50 [57]: 10.3 µM
TGI [57]: > 32.5 µM
GI50 [58]: 12.2 µM
TGI [58]: > 32.5 µM
